Source: paper PMC6882436 (Journal of Extracellular Vesicles, 2019)

Molecular target: T1, eGFP-CD82 (KAI1/CD82) (Homo sapiens, UniProt P27701)
T1 sequence (P27701 1-267): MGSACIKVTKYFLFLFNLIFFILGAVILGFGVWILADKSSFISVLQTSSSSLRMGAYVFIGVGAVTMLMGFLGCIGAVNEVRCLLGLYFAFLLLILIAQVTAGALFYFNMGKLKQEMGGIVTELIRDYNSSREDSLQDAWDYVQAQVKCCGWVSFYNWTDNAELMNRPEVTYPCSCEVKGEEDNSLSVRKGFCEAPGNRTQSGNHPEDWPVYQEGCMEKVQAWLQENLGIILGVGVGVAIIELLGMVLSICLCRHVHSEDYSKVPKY
Assay: microscale thermophoresis, eGFP fluorescence, cell lysate
Format: binding

## CC(C)CCC[C@@H](C)[C@H]1CC[C@H]2[C@@H]3CC=C4C[C@@H](O)CC[C@]4(C)[C@H]3CC[C@]12C [cholesterol]
  Kd: 5.89 µM
